Columns and labels:
D-gal-induced AD mice [1] = experiment: Immunohistochemistry of brain in D-gal-induced AD mice; assay type: in vivo; conditions: compared with the D-gal group
Protocol: (§1) Each group comprised 10 mice. […] Dosing lasted for 10 weeks. […] The mice were sacrificed after 10 weeks of administration.
Firstly, the three mice of each group were subjected to heart perfusion at the end of the animal experiment, and the whole brain was removed and placed in 15 mL of 4% paraformaldehyde and stored at 4 °C for 24 h. Secondly, we changed 4% paraformaldehyde into 15% sucrose solution and stored the solution at 4 °C for 24 h. We then changed the solution to 30% sucrose solution to dehydrate for 2 days. Thirdly, the mouse brain tissue was embedded in a cryo-embedding medium, and about 80 slices with a thickness of 20 μm were cut in the hippocampus using a cryostat (Thermal Fisher, Shanghai, China). The sections of mice in each group were immunohistochemically stained with primary antibodies, such as neuronal nuclear anti gen (NeuN), ionized calcium-binding adapter molecule 1 (Iba-1), inducible nitric oxide synthase (iNOS, pro-inflammatory factors), synaptophysin (Syp), and glial fibrillary acidic protein (GFAP), and secondary antibody. The product number and usage ratios of primary and secondary antibodies are detailed in Supplementary Table S4. Finally, the sections were observed under an upright two-photon confocal microscope (Olympus BX61, Tokyo, Japan) and recorded by a camera. The pictures were digitized with ImageJ software V1.8.0.112 (National Institutes of Health, Bethesda, MD, USA).

[2] = mouse, in vivo
Text: At the end of the animal experiment, the epididymis fat, heart, liver, spleen, and kidney of the mice were removed for weighing analysis.

PI3K = experiment: Drug affinity responsive target stability (DARTS), PI3K; assay type: binding; conditions: 0.1–100 μM GENI, protein: pronase 50:1
Protocol: Cells were lysed by RIPA lysis buffer, and the protein concentration was measured. The lysate was divided into six groups. Before incubation with protease (protein: pronase = 50:1 w/w for PI3K and AMPK detection, 5:1 for MAPK detection, 100:1 for p53 detection) for 25 min in 25 °C, 0.1–100 μM GENI was added to lysates and incubated for 2 h at room temperature. The samples were mixed with loading buffer and then separated on 8% SDS-PAGE for immunoblotting analysis.

AMPK = experiment: Cellular thermal shift assay (CETSA) in PC12 cells, AMPK; assay type: binding; conditions: 10 μM GENI 2 h, 60 °C to 80 °C
Protocol: In a 60 mm dish containing 5 mL of DMEM, 2 × 10^6 cells were added and incubated for 24 h. In each plate, 10 μM GENI was added and incubated for 2 h. Cells were harvested and heated at a temperature ranging from 60 °C to 80 °C for PC12 cell samples. We obtained a certain amount of cerebral cortex and hippocampus samples, which were added with PBS and ground. After centrifugation, the supernatant was used as a sample, and we measured the protein concentration with a BCA kit (CoWin Biotech Co., Ltd., Taizhou, Jiangsu, China). The protein of the cerebral cortex or hippocampus was incubated with 10 μM GENI at 37 °C for 2 h and heated from 65 °C to 100 °C for the cerebral cortex sample but 43 °C to 67 °C and 65 °C to 100 °C for the hippocampus sample. Equal volumes of supernatant heated at each temperature point for the control and treatment groups were used for Western blot analysis with the antibody for specific proteins.

D-gal-induced AD mice [3] = experiment: Behaviour tests in D-gal-induced AD mice; assay type: in vivo
Protocol: as §1
The Y-maze is mainly used to study the spatial working memory ability of rodents. The Y-maze consisted of three equal-length arms (50 cm × 18 cm × 35 cm), and the angle between each two arms was 120 degrees. The mice were placed at the end of any arm of the Y-maze and allowed to explore freely for 8 min. The behavioral changes including the total number of entries and alternation (successively entering all three arms of the Y-maze once in turn) were recorded. Percentage altercation = alternation/(entries-2) × 100%. The Y-maze could effectively reflect the ability of animals to recognize and remember novel environments.
NOR was used to detect memory in rodents. We prepared a 40 × 40 × 40 cm square box, camera equipment, and behavioral analysis software. We chose three objects A, B, and C, where objects A and B were exactly the same, and object C was very different from objects A and B. After the start of the experiment, the mice were allowed to acclimate freely in the experimental apparatus for 10 min. Objects A and B were placed into the box, and the mice were allowed to explore for 5 min. We then recorded the exploration time and times. After 1 h, A and C or B and C were placed into the box. After letting the mice explore for 5 min, we recorded the exploration time of the original object and the new object. Discrimination index = exploration time of new objects/total exploration time × 100%.
The MWM installation consisted of a circular pool (120 cm in diameter and 50 cm in height), camera equipment, and a computer analysis system. In the first stage, the platform position was fixed, and mice were placed into the pool from any three of the four origins on the pool facing away from the pool wall. The time when it took for the mouse to find the platform within 120 s, called escape latency, was recorded. The training period lasted 4 days. The escape latency of the mice was recorded daily, and the average value was used as an index to evaluate the ability of learning and memory. On the 5th day, the platform was evacuated by the experimenter. The mice were placed against the platform into the water from any water entry point, and they were allowed to swim freely for 60 s. We then recorded the number of times that they crossed the platform.
The rationale for the three-box social test is based on the fact that mice are naturally gregarious and tend to explore new objects. The experimental device consisted of three rectangular boxes, each with a size of 19×45 cm, with a channel in the middle to allow the three boxes to connect with one another. Two metal cages of the same size were placed in the centre of the left and right boxes. Firstly, the mice were placed in the box for 10 min. Secondly, stranger 1 mouse was randomly placed in the metal cage in the left or right box, and the metal cage in the other box was empty. The experimental mice were placed in the box for 10 min. The number and duration of direct contact between the experimental mice and stranger 1 were recorded. Thirdly, strange 2 mice were placed in the empty metal cage of the second stage experiment and then recorded for 10 min. We observed the time and number of contacts between stranger 1 and stranger 2 and calculated the social preference and sociability index.

[4] = DON 3 mg/kg, GENI 12.5, 25, 50 mg/kg groups
[5] = GENI administration group compared with the D-gal model group

In the case of CC(C)CCOC(=O)C1=CO[C@@H](O[C@@H]2O[C@H](CO)[C@@H](O)[C@H](O)[C@H]2O)C2C(CO)=CCC12 (some centres unmarked) [GENI, Geniposidic 4-isoamyl ester], the “activation of astrocytes (GFAP) in the cerebral cortex” value (D-gal-induced AD mice [1]) is reported as “decreased”, the “activation of microglia (Iba-1) in the cerebral cortex” value (D-gal-induced AD mice [1]) is reported as “decreased” and the “expression of iNOS in the cerebral cortex” value (D-gal-induced AD mice [1]) is reported as “decreased”. The “Syp intensity in the cerebral cortex” value (D-gal-induced AD mice [1]; [4]) was “significantly increased”, the “mature neurons (NeuN) in the cerebral cortex and hippocampus” value (D-gal-induced AD mice [1]; [4]) was “significantly increased” and the “myocardial hypertrophy and toxic side effects” value [2] was “did not find”. The “stability of PI3K against pronase (DARTS)” value (PI3K) was “no obvious effect”, the “thermal stability of AMPK (CETSA)” value (AMPK) was “sensibly increase the thermal stability” and the “rate of alternating arms in the Y maze test” value (D-gal-induced AD mice [3]; GENI 25 and 50 mg/kg i.g., versus D-gal group) was “significantly increase”. The “escape latency in the Morris water maze test” value (D-gal-induced AD mice [3]; [5]) was “significantly reduced”, the “number of crossing platforms in the Morris water maze test” value (D-gal-induced AD mice [3]; [5]) was “significantly increased” and the “cognitive index and object recognition index in the NOR experiment” value (D-gal-induced AD mice [3]; GENI i.g., versus D-gal group) was “significantly increased”. The “sociability and social preferences (three-box social experiment)” value (D-gal-induced AD mice [3]; GENI-administered groups) was “significant social skills and social preferences” and the “optimal dose for anti-AD effect” value (D-gal-induced AD mice [3]; comparable to the effect of DON at a dose of 3 mg/kg) was 25 mg/kg.

Reference: PMC11763059, “GENI as an AMPK Activator Binds α and γ Subunits and Improves the Memory Dysfunction of Alzheimer’s Disease Mouse Models via Autophagy and Neuroprotection” (Antioxidants, 2025)
